This data set has as its system CHO cells. Nature of the data set: Test on toxicity of DPBAP: chromosomal abnormality in CHO cells. The format is cell-based. How it is done: A test on the toxicity of the DPBAP in accordance with the method of the present invention was performed (by the Korea Research Institute of Chemical Technology). After treating the DPBAP to CHO cells, chromosomal abnormality was measured. Consequently, the increasing of the chromosomal abnormality was not observed in all of DPBAP treatment groups regardless of application of metabolic activation system. […] However, in the CHO cells, it was known that the polyploid and endoreduplication can be generally observed due to the over-proliferation, or other causes (Scott et al., 1990).

`CCCCNP(=O)(Oc1ccccc1)Oc1ccccc1` [DPBAP, Diphenylbutylaminophosphate]: where the note is “CHO cells chromosomal abnormality test”, the “toxicity (overall conclusion)” value is reported as “no toxicity were observed”. For the same compound, the “increasing of the chromosomal abnormality” value (CHO cells, all DPBAP treatment groups, regardless of application of metabolic activation system) is reported as “not observed”. Further, the cells dead result (CHO cells, highest concentration of the test material) is reported as “about 50%”. Moreover, where the note is “CHO cells, highest-concentration groups, treated during 24 hours”, the polyploid and endoreduplication entry was “minority of polyploid and endoreduplication was observed”.
